Assay results taken from publication PMC2553842, “L-DOPA Is an Endogenous Ligand for OA1” (PLoS Biology, 2008).

Biological target: T1, OA1 (Homo sapiens, UniProt P51810)
T1 construct: gene GPR143
Assay: radioligand saturation binding ([3H]-L-DOPA) on OA1-transfected CHO cells, with Scatchard analysis; supported by calcium response and beta-arrestin recruitment
Format: cell-based

T1 sequence (P51810 whole entry): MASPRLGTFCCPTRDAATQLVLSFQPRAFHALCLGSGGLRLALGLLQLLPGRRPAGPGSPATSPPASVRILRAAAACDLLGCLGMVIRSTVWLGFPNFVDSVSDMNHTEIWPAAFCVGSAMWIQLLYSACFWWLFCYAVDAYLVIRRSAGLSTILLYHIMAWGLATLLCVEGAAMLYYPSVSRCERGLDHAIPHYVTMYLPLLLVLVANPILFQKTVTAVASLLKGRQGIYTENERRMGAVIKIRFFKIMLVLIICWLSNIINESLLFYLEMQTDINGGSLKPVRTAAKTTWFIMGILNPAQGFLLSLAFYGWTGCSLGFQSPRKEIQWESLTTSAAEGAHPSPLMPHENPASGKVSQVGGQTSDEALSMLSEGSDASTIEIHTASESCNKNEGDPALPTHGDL

Structure (SMILES): N[C@@H](Cc1ccc(O)c(O)c1)C(=O)O [L-DOPA]
- Kd: 9.35 µM
